{"source": "patent US12357642B2", "about": "“Hazardous agent injection system” (Antares Pharma, Inc., priority 2009, dated 2025)", "key": {"[1]": {"conditions": "cited from earlier work; for average mean serum concentration: pediatric patients with juvenile rheumatoid arthritis"}, "[2]": {"conditions": "oral, 5 mg/m^2 per week increased to 10 mg/m^2 per week, 46 patients; cited from earlier work"}, "[3]": {"conditions": "cited from earlier work"}, "[4]": {"conditions": "cited from earlier work", "remark": "listed apart in the source"}, "[5]": {"conditions": "15 mg, 10 rheumatoid arthritis patients, cited from earlier work"}, "[6]": {"tested_on": "patients with active rheumatoid arthritis", "conditions": "cited from earlier work; for median Disease Activity Score (DAS28) / number of swollen joints / number of tender joints / patients with an ACR20 response: 24 weeks; for patients achieving ACR20: starting dose 15 mg per week; for median Health Assessment Questionnaire (HAQ) score / patients achieving an ACR70 response: week 24; for time to achieve an ACR20 response: same subgroup (n=98); for ACR20 responders: subgroup >1 year between diagnosis and study entry with prior antirheumatic compounds or steroids (n=98)"}, "[7]": {"tested_on": "patients with rheumatoid arthritis", "conditions": "cited from earlier work"}, "[8]": {"tested_on": "rheumatoid arthritis patients", "conditions": "cited from earlier work"}, "[9]": {"test": "Pharmacokinetics of methotrexate in minipig plasma after subcutaneous injection with autoinjector or needle/syringe"}, "[10]": {"conditions": "Female, Auto injector, SC, Dose Level 12.5, individual animals"}, "[11]": {"conditions": "Female, Syringe, SC, Dose Level 12.5, individual animals"}, "[12]": {"conditions": "Male, Auto injector, SC, Dose Level 12.5, individual animals"}, "[13]": {"conditions": "Male, Syringe, SC, Dose Level 12.5, individual animals"}}, "note": "Several values for one entry are separate records, joined by “and”; a condition that tells them apart may be missing. Identical values can stand only once. Entries after “also recorded” stand apart in the source; their conditions may differ. Like-named read-outs stand apart in the source and are kept apart here.", "data": [{"smiles": "CN(Cc1cnc2nc(N)nc(N)c2n1)c1ccc(C(=O)N[C@@H](CCC(=O)O)C(=O)O)cc1", "note": "[Methotrexate, L-(+)—N-[p-[[(2,4-Diamino-6-pteridinyl)methyl]methylamino]-benzoyl]glutamic acid]", "values": [{"measurement": "initial average distribution volume", "setting": "[1]; after intravenous administration", "value": "about 0.18 L/kg"}, {"measurement": "absorption from parenteral routes of injection", "setting": "[1]; human, in vivo", "value": "completely absorbed"}, {"measurement": "average mean serum concentration", "setting": "[1]; at about 1 hour", "value": "about 0.59 μM"}, {"measurement": "average mean serum concentration", "setting": "[1]; at about 3 hours", "value": "about 0.29 μM"}, {"measurement": "effect of higher doses", "setting": "[2]", "value": "dose-related efficacy response together with a trend toward increased toxicity"}, {"measurement": "average DAS28", "setting": "[3]; after switch from oral to intramuscular administration at 15 mg per week", "value": 5.2}, {"measurement": "average DAS28", "setting": "[3]; before switch from oral to intramuscular administration at 15 mg per week", "value": 5.6}, {"measurement": "disease improvement compared to placebo", "setting": "[3]; intramuscular dosage escalated 15 to 45 mg per week, 54 patients who did not achieve DAS28<3.2", "value": "no difference in disease improvement"}, {"measurement": "peak serum concentrations and bioavailability, intramuscular versus subcutaneous", "setting": "[4]; 12.5 mg to 25 mg per week", "value": "similar"}, {"measurement": "Tmax after subcutaneous versus intramuscular administration", "setting": "[4]; in 4 out of 5 patients tested", "value": "faster"}, {"measurement": "oral bioavailability", "setting": "[5]; fasting", "value": 67, "unit": "%"}, {"measurement": "oral bioavailability", "setting": "[5]; fed", "value": 63, "unit": "%"}, {"measurement": "patients classified as ACR20 non-responders", "setting": "[6]; 16 weeks, of the total tested (52 patients)", "value": 14, "unit": "%"}, {"measurement": "median Disease Activity Score (DAS28)", "setting": "[6]; oral", "value": 3.7}, {"measurement": "number of swollen joints", "setting": "[6]; oral", "value": 3}, {"measurement": "number of tender joints", "setting": "[6]; oral", "value": 6}, {"measurement": "patients with an ACR20 response", "setting": "[6]; oral", "value": 70, "unit": "%"}, {"measurement": "patients achieving ACR20", "setting": "[6]; oral, 16 weeks", "value": 77, "unit": "%"}, {"measurement": "median Health Assessment Questionnaire (HAQ) score", "setting": "[6]; oral", "value": 0.5}, {"measurement": "patients achieving an ACR70 response", "setting": "[6]; oral", "value": 33, "unit": "%"}, {"measurement": "time to achieve an ACR20 response", "setting": "[6]; oral", "value": 6, "unit": "weeks"}, {"measurement": "ACR20 responders", "setting": "[6]; oral", "value": 63, "unit": "%"}, {"measurement": "rate of adverse events, subcutaneous versus oral", "setting": "[6]; same dose", "value": "not accompanied by a significantly higher rate of adverse events"}, {"measurement": "further non-responders with positive ACR20 response after dose increase", "setting": "[6]; subcutaneous dosage increased from 15 mg to 20 mg", "value": 23, "unit": "%"}, {"measurement": "median Disease Activity Score (DAS28)", "setting": "[6]; subcutaneous", "value": 3.3}, {"measurement": "number of swollen joints", "setting": "[6]; subcutaneous", "value": 2}, {"measurement": "number of tender joints", "setting": "[6]; subcutaneous", "value": 3.5}, {"measurement": "patients with an ACR20 response", "setting": "[6]; subcutaneous", "value": 78, "unit": "%"}, {"measurement": "patients achieving ACR20", "setting": "[6]; subcutaneous, 16 weeks", "value": 85, "unit": "%"}, {"measurement": "median Health Assessment Questionnaire (HAQ) score", "setting": "[6]; subcutaneous", "value": 0.4}, {"measurement": "patients achieving an ACR70 response", "setting": "[6]; subcutaneous", "value": 41, "unit": "%"}, {"measurement": "time to achieve an ACR20 response", "setting": "[6]; subcutaneous", "value": 4, "unit": "weeks"}, {"measurement": "ACR20 responders", "setting": "[6]; subcutaneous", "value": 89, "unit": "%"}, {"measurement": "non-responders with positive ACR20 response after switch", "setting": "[6]; switched from 15 mg oral to 15 mg subcutaneous", "value": 30, "unit": "%"}, {"measurement": "patients reporting nausea", "setting": "[7]; after switching to oral", "value": 48, "unit": "%"}, {"measurement": "patients reporting nausea", "setting": "[7]; switched back to intramuscular", "value": 40, "unit": "%"}, {"measurement": "patients judged to have moderate or marked improvement", "setting": "[8]; 10 mg to 15 mg intramuscular once a week, 78 rheumatoid arthritis patients", "value": "Eighty-two"}, {"measurement": "patients who deteriorated after switch to oral and improved after switching back to intramuscular", "setting": "[8]; of the 48 patients who switched to oral", "value": 10, "unit": "patients"}, {"measurement": "Methotrexate in samples collected prior to dosing", "setting": "[9]; Female, autoinjector, Day 8, attributed to carryover of the instrument, LLOQ=0.2 ng/mL", "value": 3.19, "unit": "ng/mL"}, {"measurement": "AUC(0-mx)", "setting": "[9]; [10]", "value": "2501 ng·mL·h and 3172 ng·mL·h"}, {"measurement": "AUC(0-t)", "setting": "[9]; [10]", "value": "2498 ng·mL·h and 3169 ng·mL·h"}, {"measurement": "T½", "setting": "[9]; [10]", "value": "3.91 h and 3.95 h"}, {"measurement": "AUC(0-t)", "setting": "[9]; Female, Autoinjector, Day 8, individual animals", "value": 3.169, "unit": "µg·h/mL"}, {"measurement": "AUC(0-t)", "setting": "[9]; Female, Needle/Syringe, Day 1, individual animals", "value": "2.669 µg·h/mL and 1.831 µg·h/mL"}, {"measurement": "AUC(0-mx)", "setting": "[9]; [11]", "value": "2675 ng·mL·h and 1832 ng·mL·h"}, {"measurement": "AUC(0-t)", "setting": "[9]; [11]", "value": "2669 ng·mL·h and 1831 ng·mL·h"}, {"measurement": "Tmax", "setting": "[9]; [11]", "value": 0.50, "unit": "h"}, {"measurement": "T½", "setting": "[9]; [11]", "value": "4.90 h and 2.53 h"}, {"measurement": "AUC(0-mx)", "setting": "[9]; [12]", "value": "1903 ng·mL·h and 1407 ng·mL·h"}, {"measurement": "AUC(0-t)", "setting": "[9]; [12]", "value": "1901 ng·mL·h and 1405 ng·mL·h"}, {"measurement": "T½", "setting": "[9]; [12]", "value": "2.00 h and 1.81 h"}, {"measurement": "AUC(0-t)", "setting": "[9]; Male, Autoinjector, Day 1, individual animals", "value": "1.405 µg·h/mL and 1.162 µg·h/mL"}, {"measurement": "AUC(0-t)", "setting": "[9]; Male, Needle/Syringe, Day 8, individual animals", "value": "2.016 µg·h/mL and 1.324 µg·h/mL"}, {"measurement": "AUC(0-t)", "setting": "[9]; [13]", "value": "2464 ng·mL·h and 2016 ng·mL·h"}, {"measurement": "Tmax", "setting": "[9]; [13]", "value": 0.50, "unit": "h"}, {"measurement": "difference in exposure / PK parameters between males and females", "setting": "[9]; SC 12.5 mg, both devices", "value": "no marked difference; also recorded: no marked sex-related differences"}, {"measurement": "exposure with autoinjector compared with needle/syringe", "setting": "[9]; SC 12.5 mg, male and female minipigs", "value": "very similar; also recorded: comparable"}, {"measurement": "time at which maximal plasma concentrations were generally observed", "setting": "[9]; both devices, SC 12.5 mg, first collection time point", "value": 0.25, "unit": "h"}, {"measurement": "half-life", "setting": "[9]; both, Gottingen, minipig, plasma, subcutaneous, 12.5 mg, terminal elimination half-life, range over animals and both devices, where it could be estimated", "value": "1.81 to 4.9", "unit": "h"}, {"measurement": "AUC(0-t)", "setting": "[9]; female, Gottingen, minipig, plasma, sc, 12.5 mg, AUC(0-t), Female, Autoinjector, Day 8, individual animals", "value": 2.5, "unit": "µg·h/mL"}, {"measurement": "AUC(0-t)", "setting": "[9]; female, Gottingen, minipig, plasma, sc, 12.5 mg, AUC(0-t), Female, Needle/Syringe, Day 1, individual animals", "value": 2.38, "unit": "µg·h/mL"}, {"measurement": "Tmax", "setting": "[9]; female, Gottingen, minipig, plasma, sc, […], Tmax, Auto injector, Dose Level 12.5, Median value", "value": 0.25, "unit": "h"}, {"measurement": "Tmax", "setting": "[9]; female, Gottingen, minipig, plasma, sc, […], Tmax, Auto injector, Dose Level 12.5, individual animals", "value": 0.25, "unit": "h"}, {"measurement": "Tmax", "setting": "[9]; female, Gottingen, minipig, plasma, sc, […], Tmax, Syringe, Dose Level 12.5, Median value", "value": 0.25, "unit": "h"}, {"measurement": "Tmax", "setting": "[9]; female, Gottingen, minipig, plasma, sc, […], Tmax, Syringe, Dose Level 12.5, individual animals", "value": 0.25, "unit": "h"}, {"measurement": "half-life", "setting": "[9]; female, Gottingen, minipig, plasma, sc, […], T½, Auto injector, Dose Level 12.5, Mean", "value": 3.71, "unit": "h"}, {"measurement": "half-life", "setting": "[9]; female, Gottingen, minipig, plasma, sc, […], T½, Auto injector, Dose Level 12.5, individual animals", "value": 3.26, "unit": "h"}, {"measurement": "half-life", "setting": "[9]; female, Gottingen, minipig, plasma, sc, […], T½, Syringe, Dose Level 12.5, Mean", "value": 3.39, "unit": "h"}, {"measurement": "half-life", "setting": "[9]; female, Gottingen, minipig, plasma, sc, […], T½, Syringe, Dose Level 12.5, individual animals", "value": 2.74, "unit": "h"}, {"measurement": "AUC(0-t)", "setting": "[9]; male, Gottingen, minipig, plasma, sc, 12.5 mg, AUC(0-t), Male, Autoinjector, Day 1, individual animals", "value": 1.9, "unit": "µg·h/mL"}, {"measurement": "AUC(0-t)", "setting": "[9]; male, Gottingen, minipig, plasma, sc, 12.5 mg, AUC(0-t), Male, Needle/Syringe, Day 8, individual animals", "value": 2.46, "unit": "µg·h/mL"}, {"measurement": "concentration at 24 h", "setting": "[9]; male, Gottingen, minipig, plasma, sc, […], Concentration of Methotrexate in plasma, Males, Autoinjector, 24 h, individual animals, BQL = below quantitation limit 0.200 ng/mL", "value": 0.696, "unit": "ng/mL"}, {"measurement": "Tmax", "setting": "[9]; male, Gottingen, minipig, plasma, sc, […], Tmax, Auto injector, Dose Level 12.5, Median value", "value": 0.25, "unit": "h"}, {"measurement": "Tmax", "setting": "[9]; male, Gottingen, minipig, plasma, sc, […], Tmax, Auto injector, Dose Level 12.5, individual animals", "value": 0.25, "unit": "h"}, {"measurement": "Tmax", "setting": "[9]; male, Gottingen, minipig, plasma, sc, […], Tmax, Syringe, Dose Level 12.5, Median value", "value": 0.25, "unit": "h"}, {"measurement": "Tmax", "setting": "[9]; male, Gottingen, minipig, plasma, sc, […], Tmax, Syringe, Dose Level 12.5, individual animals", "value": 0.25, "unit": "h"}, {"measurement": "half-life", "setting": "[9]; male, Gottingen, minipig, plasma, sc, […], T½, Auto injector, Dose Level 12.5, Mean", "value": 1.92, "unit": "h"}, {"measurement": "half-life", "setting": "[9]; male, Gottingen, minipig, plasma, sc, […], T½, Auto injector, Dose Level 12.5, individual animals", "value": 1.95, "unit": "h"}, {"measurement": "half-life", "setting": "[9]; male, Gottingen, minipig, plasma, sc, […], T½, Syringe, Dose Level 12.5, individual animals", "value": 1.91, "unit": "h"}]}]}
